These results are taken from paper PMC10222270, “Natural Product-Based Screening for Lead Compounds Targeting SARS CoV-2 M^pro” (Pharmaceuticals, 2023).

SMILES strings stand for the structures. Values joined by “and” are separate entries in the source; they are usually repeats but may differ in a detail not shown here. Equal entries are not always repeated. Where two headings read alike, the source gives them in different places.

The target of the assay is T1, SARS CoV-2 M^pro (Severe acute respiratory syndrome coronavirus 2, UniProt P0DTD1).
T1 construct: The main protease (M^pro) is a part of the polyprotein chain, also named 3C-like protease; SUMO (cleaved yes); His; made in house; host or cells: Escherichia coli BL21(DE3)
As to the kind of experiment: biochemical. Conditions: for inhibition at 80 µM: read-out: Inhibition%(80μM). It is filed as biochemical.

Usually inhibition stands for the relative decrease from the control value, in per cent.

Turning to `O=C1O[C@H]2[C@@H]3OC(=O)c4cc(O)c(O)c(O)c4-c4c(O)c(O)c5oc(=O)c6c(c(O)c(O)c7oc(=O)c4c5c76)-c4c(cc(O)c(O)c4O)C(=O)OC[C@H]3OC(O)[C@@H]2OC(=O)c2cc(O)c(O)c(O)c2-c2c1cc(O)c(O)c2O` (mixture of isomers) [Punicalagin], the “Inhibition%(80μM)” value was 73.51% and 73.40%; the inhibition at 80 µM worked out at 75%.

Turning to `CC(C)=CCC(O)C1=CC(=O)c2c(O)ccc(O)c2C1=O` (racemic) [(±)-Shikonin], the “Inhibition%(80μM)” value is 95.04% and 93.71%; the inhibition at 80 µM came out at 87.6%.

Turning to `O=C(/C=C/c1ccc(O)c(O)c1)O[C@@H]1C[C@@](OC(=O)/C=C/c2ccc(O)c(O)c2)(C(=O)O)C[C@@H](O)[C@@H]1O` [1,5-Dicaffeoylquinic Acid], the “Inhibition%(80μM)” value is 75.61% and 71.24%; the inhibition at 80 µM was determined as 74.6%.

With `CC(=O)O[C@H]1[C@H](OCCc2ccc(O)c(O)c2)O[C@H](CO)[C@@H](OC(=O)/C=C/c2ccc(O)c(O)c2)[C@@H]1O[C@@H]1O[C@@H](C)[C@H](O)[C@@H](O)[C@H]1O` [2'-Acetylacteoside], the “Inhibition%(80μM)” value is 93.37% and 90.77%; the inhibition at 80 µM was determined as 90.6%.

For `CC1=CC(=O)C=C(C)C1=O` [2,6-Dimethylbenzoquinone], the “Inhibition%(80μM)” value is 101.34% and 101.15%; the inhibition at 80 µM was found to be 102%.

Consider `O=c1c(O)c(-c2ccc(O)c(O)c2)oc2cc(O)c(O)c(O)c12` [3,3',4',5,6,7-Hexahydroxyflavone], for which the “Inhibition%(80μM)” value was 99.40% and 98.98% and 98.10%.

Take `O=C(O)Cc1ccc(O)c(O)c1` [3,4-Dihydroxyphenylacetic Acid]: the “Inhibition%(80μM)” value was 71.59% and 70.57%; the inhibition at 80 µM turned out to be 72.4%.

With `OCCc1ccc(O)c(O)c1` [3,4-Dihydroxyphenylethanol], the “Inhibition%(80μM)” value was 102.33% and 102.25%; the inhibition at 80 µM was 101%.

For `CC(=O)OC(C)(C)CC(=O)O[C@@H](CC=C(C)C)C1=CC(=O)c2c(O)ccc(O)c2C1=O` [3-(Acetyloxy)-3-methylbutanoic acid (1S)-1-(1,4-dihydro-5,8-dihydroxy-1,4-dioxo-2-naphthalenyl)-4-methyl-3-pentenyl ester], the “Inhibition%(80μM)” value was 93.12% and 92.58% and 93.44%.

For `Cc1ccc(O)c(O)c1` [4-Methylcatechol], the “Inhibition%(80μM)” value was 102.51% and 102.92%; the inhibition at 80 µM amounted to 103%.

Regarding `Cc1cc(=O)oc2cc(O)c(O)cc12` [4-Methylesculetin], the “Inhibition%(80μM)” value stood at 77.57% and the inhibition at 80 µM turned out to be 79.1%. Further, the inhibition at 80 µM (80 μM compound, second value column of Table S2) was determined as 79.9%.

`COC(=O)[C@@H](Cc1ccc(O)c(O)c1)OC(=O)[C@@H]1c2c(/C=C/C(=O)O[C@H](Cc3ccc(O)c(O)c3)C(=O)O)ccc(O)c2O[C@H]1c1ccc(O)c(O)c1` [9'-Methyl Lithospermate B]: the “Inhibition%(80μM)” value is 72.67% and 74.36%; the inhibition at 80 µM was 73.6%.

For the compound `CCCCCCCC/C=C\CCCCCCCCC(=O)O` [10Z-Nonadecenoic acid], the “Inhibition%(80μM)” value is 126.52% and 101.02% and 101.53%.

Consider `OC[C@]1(O)COc2cc(O)ccc2-c2cc(O)c(O)cc2C1` [(7S)-3,7,10,11-Tetrahydroxy-7,8-dihydro-6H-dibenzo[b,d]oxocin-7-methanol], for which the “Inhibition%(80μM)” value is 101.15% and 101.14% and 101.45%.

On to `O=C(O[C@@H]1Cc2c(O)cc(O)cc2O[C@@H]1c1cc(O)c(O)c(O)c1)c1cc(O)c(O)c(O)c1` [(-)-Epigallocatechin Gallate], for which the “Inhibition%(80μM)” value was 85.53% and 79.02%; the inhibition at 80 µM was 82.6%.

As to `CC(C)=CCC(OC(=O)C=C(C)C)C1=CC(=O)c2c(O)ccc(O)c2C1=O` (stereo not drawn) [(β,β-Dimethylacryl)Shikonin], the “Inhibition%(80μM)” value was 82.39% and 82.91% and 82.80%.

As for `O=C(O[C@@H]1Cc2c(O)cc(O)cc2O[C@H]1c1cc(O)c(O)c(O)c1)c1cc(O)c(O)c(O)c1` [(−)–gallocatechin gallate, (-)-Gallocatechin Gallate], the “Inhibition%(80μM)” value is 102.08% and 101.74%; the inhibition at 80 µM amounted to 101%.

Turning to `O=C(O)c1ccc2c(c1)C(=O)c1ccccc1C2=O` [Anthraquinone-2-Carboxylic Acid], the “Inhibition%(80μM)” value is recorded as 84.57% and the inhibition at 80 µM stood at 85.4%.

Turning to `CCCCC/C=C\C/C=C\C/C=C\C/C=C\CCCC(=O)O` [Arachidonic Acid], the “Inhibition%(80μM)” value is 76.72% and 73.70%; the inhibition at 80 µM was 82.2%.

As for `C[C@@H]1OC(O[C@@H]2[C@@H](O)[C@H](OCCc3ccc(O)c(O)c3)O[C@H](CO[C@@H]3OC[C@@H](O)[C@H](O)[C@H]3O)[C@H]2OC(=O)/C=C/c2ccc(O)c(O)c2)[C@H](O)[C@H](O)[C@H]1O` (some centres unmarked) [Arenarioside], the “Inhibition%(80μM)” value was 99.86% and 99.31%; the inhibition at 80 µM worked out at 99.1%.

With `O=C(O)[C@H]1O[C@@H](Oc2cc3oc(-c4ccccc4)cc(=O)c3c(O)c2O)[C@H](O)[C@@H](O)[C@@H]1O` [Baicalin], the “Inhibition%(80μM)” value is 72.02% and the inhibition at 80 µM turned out to be 77.5%.

Regarding `Oc1ccc2c(c1)OC[C@]1(O)Cc3cc(O)c(O)cc3[C@H]21` [Brazilin], the “Inhibition%(80μM)” value is 101.06% and 101.28%; the inhibition at 80 µM came to 101%.

For `O=C(O)[C@H]1O[C@@H](Oc2cc3oc(-c4ccc(O)cc4)cc(=O)c3c(O)c2O)[C@H](O)[C@@H](O)[C@@H]1O` [Breviscapin], the “Inhibition%(80μM)” value was 78.06% and 77.78%; the inhibition at 80 µM is 66%.

`CC(C)c1cc2c(c(O)c1O)[C@@]13CCCC(C)(C)[C@@H]1C[C@@H]2OC3=O` [Carnosol]: the “Inhibition%(80μM)” value was 73.35% and 80.59%; the inhibition at 80 µM came out at 74.5%.

Regarding `CC1=C(O)C(=O)C=C2C1=CC=C1[C@@]2(C)CC[C@@]2(C)[C@@H]3C[C@](C)(C(=O)O)CC[C@]3(C)CC[C@]12C` [Celastrol], the “Inhibition%(80μM)” value is 85.83% and 91.32%; the inhibition at 80 µM turned out to be 89.6%.

For `COc1ccc2c(c[n+](C)c3c4cc5c(cc4ccc23)OCO5)c1OC` [Chelerythrine chloride], the “Inhibition%(80μM)” value was 98.66% and 98.31% and 98.46%.

Take `COc1ccc2c(c[n+](C)c3c4cc5c(cc4ccc23)OCO5)c1OC` [Chelerythrine]: the “Inhibition%(80μM)” value is 98.97% and 99.51%; the inhibition at 80 µM was 99.4%.

For the compound `O=C(O[C@@H]1O[C@@H]2COC(=O)c3cc(O)c(O)c(O)c3-c3c(cc(O)c(O)c3O)C(=O)O[C@H]([C@H]1O)[C@@H]2O)c1cc(O)c(O)c(O)c1` [Corilagin], the “Inhibition%(80μM)” value is 101.84% and 101.22%; the inhibition at 80 µM is 101%.

As to `CC(C)=CCCC1=CC(=O)c2c(O)ccc(O)c2C1=O` [Deoxyshikonin], the “Inhibition%(80μM)” value is 88.46% and 84.98%; the inhibition at 80 µM came out at 82.3%.

Regarding `O=C(/C=C/c1ccc(O)c(O)c1)OC[C@H]1O[C@@H](OCCc2ccc(O)c(O)c2)[C@H](O)[C@@H](O)[C@@H]1O` [Desrhamnosyl Isoacteoside], the “Inhibition%(80μM)” value was 93.35% and 94.40% and 92.55%.

Take `CCCCC/C=C\C/C=C\CCCCCCCCCC(=O)O` [Eicosadienoic Acid]: the “Inhibition%(80μM)” value is 103.14% and 107.18%; the inhibition at 80 µM is 105%.

For `CCCCCCCC/C=C/CCCCCCCC(=O)O` [Elaidic Acid], the “Inhibition%(80μM)” value was 79.40% and 87.31%; the inhibition at 80 µM is 74.9%.

For the compound `CCCCCCCCCCCC1=C(O)C(=O)C=C(O)C1=O` [Embelin], the “Inhibition%(80μM)” value is 89.75% and 99.35%; the inhibition at 80 µM stood at 103%.

For the compound `CCCCCCCC/C=C\CCCCCCCCCCCC(=O)O` [Erucic Acid], the “Inhibition%(80μM)” value was 99.68% and 100.48%; the inhibition at 80 µM was 101%.

Take `C[C@@H]1O[C@@H](OC[C@H]2O[C@@H](OCCc3ccc(O)c(O)c3)[C@H](O)[C@@H](O)[C@@H]2OC(=O)/C=C/c2ccc(O)c(O)c2)[C@H](O)[C@H](O)[C@H]1O` [Forsythoside A]: the “Inhibition%(80μM)” value is 73.60% and 71.69%; the inhibition at 80 µM stood at 77%.

As to `C[C@@H]1O[C@@H](OC[C@H]2O[C@@H](OCCc3ccc(O)c(O)c3)[C@H](O)[C@@H](O)[C@@H]2O)[C@H](O)[C@H](O)[C@H]1O` [Forsythoside E], the “Inhibition%(80μM)” value is 102.62% and 100.37%; the inhibition at 80 µM worked out at 103%.

In the case of `CC(C)=CCC[C@]1(C)C=Cc2c(O)c3c(c(CC=C(C)C)c2O1)O[C@]12C(=C[C@@H]4C[C@H]1C(C)(C)O[C@@]2(C/C=C(/C)C(=O)O)C4=O)C3=O` [Gambogic Acid], the “Inhibition%(80μM)” value is 78.61% and 79.43%; the inhibition at 80 µM is 78.5%.

For the compound `O=C1O[C@H]2[C@@H]3OC(=O)c4cc(O)c(O)c(O)c4-c4c(cc(O)c(O)c4O)C(=O)OC[C@H]2O[C@@H](OC(=O)c2cc(O)c(O)c(O)c2)[C@@H]3OC(=O)c2cc(O)c(O)c3c2[C@@H]2C1=CC(=O)[C@](O)(O3)C2(O)O` [Geraniin], the “Inhibition%(80μM)” value was 70.07% and 71.11%; the inhibition at 80 µM came out at 71.6%.

On to `CCCCCC/C=C\CCCCCCCCCc1cccc(O)c1C(=O)O` [Ginkgolic Acid C17:1], for which the “Inhibition%(80μM)” value was 100.63% and 101.61%; the inhibition at 80 µM turned out to be 102%.

On to `Oc1cc(O)cc(/C=C/c2c(O)cccc2O)c1` [Gnetol], for which the “Inhibition%(80μM)” value was 81.39% and 81.62%; the inhibition at 80 µM amounted to 81.5%.

In the case of `O=C(O)CCc1ccc(O)c(O)c1` [Hydrocaffeic Acid], the “Inhibition%(80μM)” value is 90.29% and 90.08%; the inhibition at 80 µM is 88.3%.

In the case of `O=c1oc2c(O)cc(O)cc2c2oc3cc(O)c(O)cc3c12` [Isodemethylwedelolacton], the “Inhibition%(80μM)” value is 99.38% and 99.79%; the inhibition at 80 µM came out at 99.7%.

Consider `C[C@@H]1O[C@@H](OC[C@H]2O[C@@H](OCCc3ccc(O)c(O)c3)[C@H](O)[C@@H](OC(=O)/C=C/c3ccc(O)c(O)c3)[C@@H]2O)[C@H](O)[C@H](O)[C@H]1O` [Isoforsythiaside], for which the “Inhibition%(80μM)” value was 100.44% and 101.30%; the inhibition at 80 µM is 100%.
